Measurements taken from PubChem BioAssay AID256 (DTP/NCI, 2004).
Inconclusive results and toxic doses are left out. The calls were made as follows: active = survival T/C of 150% or more; inactive = T/C below 125% in these data.

System: CD2F1 mice, L1210 leukemia ip, survival T/C
Test: NCI In Vivo Anticancer Drug Screen. Data for tumor model L1210 Leukemia (intraperitoneal) in CD2F1 (CDF1) mice
Conditions: endpoint: mean survival time, higher = longer survival
Procedure, shortened: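 Read-out first: treated-group measurement over vehicle-control measurement, expressed as a ratio. Animals bore a transplanted tumor line and were dosed with compound or vehicle.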

[1] = dose: 50.0 mg/kg/injection, schedule: Q01DX009 (ip), vehicle: saline
[2] = dose: 100.0 mg/kg/injection, schedule: Q01DX009 (ip), vehicle: saline
[3] = dose: 200.0 mg/kg/injection, schedule: Q01DX009 (ip), vehicle: saline
[4] = dose: 100.0 mg/kg/injection, schedule: Q01DX009 (ip), vehicle: saline with Tween-80
[5] = dose: 100.0 mg/kg/injection, schedule: Q04DX003 (ip), vehicle: saline with Tween-80
[6] = dose: 200.0 mg/kg/injection, schedule: Q01DX009 (ip), vehicle: saline with Tween-80
[7] = dose: 200.0 mg/kg/injection, schedule: Q04DX003 (ip), vehicle: saline with Tween-80
[8] = dose: 400.0 mg/kg/injection, schedule: Q01DX009 (ip), vehicle: saline with Tween-80
[9] = dose: 400.0 mg/kg/injection, schedule: Q04DX003 (ip), vehicle: saline with Tween-80
[10] = dose: 100.0 mg/kg/injection, schedule: Q04DX002 (ip), vehicle: saline with Tween-80
[11] = dose: 200.0 mg/kg/injection, schedule: Q04DX002 (ip), vehicle: saline with Tween-80
[12] = dose: 400.0 mg/kg/injection, schedule: Q04DX002 (ip), vehicle: saline with Tween-80
[13] = dose: 100.0 mg/kg/injection, schedule: Q04DX003 (ip), vehicle: saline
[14] = dose: 200.0 mg/kg/injection, schedule: Q04DX003 (ip), vehicle: saline
[15] = dose: 400.0 mg/kg/injection, schedule: Q04DX003 (ip), vehicle: saline
[16] = dose: 100.0 mg/kg/injection, schedule: Q01DX001 (ip), vehicle: saline with Tween-80
[17] = dose: 200.0 mg/kg/injection, schedule: Q01DX001 (ip), vehicle: saline with Tween-80
[18] = dose: 400.0 mg/kg/injection, schedule: Q01DX001 (ip), vehicle: saline with Tween-80

Measured: T/C

COC1OC2C(CO)OC(n3ncc4c3ncn3cnnc43)C2O1 (configuration not stated)
inactive: dose: 12.5 mg/kg/injection, schedule: Q01DX005 (ip), vehicle: distilled water + Tween-80 96 % of control | dose: 25.0 mg/kg/injection, schedule: Q01DX005 (ip), vehicle: distilled water + Tween-80 96 % of control | dose: 50.0 mg/kg/injection, schedule: Q01DX005 (ip), vehicle: distilled water + Tween-80 92 % of control | dose: 100.0 mg/kg/injection, schedule: Q01DX005 (ip), vehicle: distilled water + Tween-80 96 % of control | dose: 200.0 mg/kg/injection, schedule: Q01DX005 (ip), vehicle: distilled water + Tween-80 96 % of control

O/N=C(/CN1CCOCC1)c1ccc(Cl)cc1
inactive: [1] 100 % of control | [2] 97 % of control | [3] 103 % of control

O=C(Nc1cc(C(F)(F)F)ccc1Cl)c1cccc(Cl)c1
inactive: [4] 95 % of control | [5] 102 % of control | [6] 98 % of control | [7] 93 % of control | [8] 98 % of control | [9] 94 % of control

Cc1ccc(S(=O)(=O)OCC2C3CC(c4ccccc43)C2COS(=O)(=O)c2ccc(C)cc2)cc1 (configuration not stated)
inactive: [10] 102 % of control | [11] 111 % of control | [12] 95 % of control

CN1CCC(=C(C#N)C#N)CC1
inactive: dose: 25.0 mg/kg/injection, schedule: Q01DX009 (ip), vehicle: saline 103 % of control | [1] 94 % of control | [2] 96 % of control

CC(=O)Oc1c(C)ncc(C=O)c1C
inactive: dose: 75.0 mg/kg/injection, schedule: Q01DX001 (ip), vehicle: other 101 % of control | dose: 150.0 mg/kg/injection, schedule: Q01DX001 (ip), vehicle: other 100 % of control

COc1cccc2c1C(=O)c1c(O)c3c(c(O)c1C2=O)CC(O)(/C(C)=N/NC(=O)CCCC(=O)N/N=C(\C)C1(O)Cc2c(O)c4c(c(O)c2C(OC2CC(N)C(O)C(C)O2)C1)C(=O)c1c(OC)cccc1C4=O)CC3OC1CC(N)C(O)C(C)O1 (configuration not stated)
inactive: dose: 0.2 mg/kg/injection, schedule: Q01DX009 (ip), vehicle: water 101 % of control | dose: 0.39 mg/kg/injection, schedule: Q01DX009 (ip), vehicle: water 98 % of control | dose: 0.78 mg/kg/injection, schedule: Q01DX009 (ip), vehicle: water 109 % of control | dose: 1.56 mg/kg/injection, schedule: Q01DX009 (ip), vehicle: water 104 % of control | dose: 3.13 mg/kg/injection, schedule: Q01DX009 (ip), vehicle: water 114 % of control

C[SeH]C.C[SeH]C.[Cl][Pt][Cl]
inactive: dose: 0.94 mg/kg/injection, schedule: Q04DX003 (ip), vehicle: saline 100 % of control | dose: 1.88 mg/kg/injection, schedule: Q04DX003 (ip), vehicle: saline 97 % of control | dose: 3.75 mg/kg/injection, schedule: Q04DX003 (ip), vehicle: saline 97 % of control | dose: 7.5 mg/kg/injection, schedule: Q04DX003 (ip), vehicle: saline 100 % of control | dose: 15.0 mg/kg/injection, schedule: Q04DX003 (ip), vehicle: saline 100 % of control | dose: 30.0 mg/kg/injection, schedule: Q04DX003 (ip), vehicle: saline 105 % of control

Cc1ccc(S(=O)(=O)/C=C(/I)C(=O)c2ccccc2)cc1
inactive: [2] 90 % of control | [13] 100 % of control | [3] 93 % of control | [14] 96 % of control | dose: 400.0 mg/kg/injection, schedule: Q01DX009 (ip), vehicle: saline 88 % of control | [15] 108 % of control

NC(=O)NC1OC(CO)C(O)C(O)C1O (configuration not stated)
inactive: [13] 100 % of control | [14] 100 % of control | [15] 105 % of control

O=[N+]([O-])c1cc(F)ccc1O
inactive: [4] 96 % of control

Clc1cccc(Cl)c1C(Cl)Cl
inactive: [4] 98 % of control | [6] 98 % of control | [8] 98 % of control

CC1(CCOCc2ccccc2)NC(=O)NC1=O (configuration not stated)
inactive: [4] 95 % of control | [5] 97 % of control | [6] 95 % of control | [7] 98 % of control | [8] 98 % of control | [9] 98 % of control

O=C1CC(c2ccccc2)=NO1
inactive: [16] 106 % of control | [17] 101 % of control | [18] 101 % of control

O=C(C(=C(c1ccccc1)c1ccccc1)c1ccccc1)c1ccccc1
inactive: [10] 93 % of control | [11] 96 % of control | [12] 93 % of control

Cn1nnc(-c2nn[nH]n2)n1
inactive: [16] 105 % of control | [5] 106 % of control | [17] 104 % of control | [7] 98 % of control | [18] 94 % of control | [9] 97 % of control

CS(=O)(=O)OCCF
inactive: dose: 1.5 mg/kg/injection, schedule: Q04DX003 (ip), vehicle: saline with Tween-80 98 % of control | dose: 3.0 mg/kg/injection, schedule: Q04DX003 (ip), vehicle: saline with Tween-80 98 % of control | dose: 6.0 mg/kg/injection, schedule: Q04DX003 (ip), vehicle: saline with Tween-80 103 % of control
